Test results: patent US7482379B2, “Propenoyl hydrazides” (priority 2004, dated 2009)
Read-outs that look alike come from different tables or passages of the source.

How the values were obtained:
[1] = target: S. mansoni legumain (Schistosoma mansoni, UniProt P09841, N192C); assay: S. mansoni legumain (SmAE) inhibition assay; assay type: biochemical; details: for kinact/KI: read-out: kobs/[I]
Description: Studies with the propenoyl hydrazides using the schistosome legumain […], (Schistosoma mansoni asparaginyl endopeptidase) were also performed. […] The actual active site enzyme concentration is unknown. The lyophilized enzyme ([…]) was reconstituted in 1.5 mL 0.5 M sodium acetate, pH 4.5 containing 4 mM DTT, and left to stand at 37° C. for 3-4 hours to allow for auto-activation of the zymogen. In a black 96-well microtiter plate, 50 μL of activated enzyme was added to an equal volume of 0.1 M citrate-phosphate buffer pH 6.8 containing 4 mM DTT. Inhibitor stock solutions (20 mM) were prepared in DMSO. Serial dilutions (using water) of inhibitor were added (as 1 μL aliquots) to yield concentrations of between 2 and 0.00002 μM inhibitor. […] After incubating various inhibitor concentrations with enzyme, 100 μL of the same buffer containing 20 μM substrate (Cbz-Ala-Ala-Asn-AMC) was added to the wells and the reaction monitored at room temperature with linear kinetics up to 20 minutes. Inhibitors are tested in duplicate. A plot of the RFU/min versus the inhibitor concentration [μM] permitted calculation of an IC50 value and estimation of the kobs/[I].

[2] = target: T1, Caspase-7 (Homo sapiens, UniProt P55210); assay: Caspase-7 progress curve inhibition assay; details: second-order rate constant; Ac-DEVD-AMC substrate; Pipes buffer pH 7.2
T1 sequence (P55210 24-198 limits assumed): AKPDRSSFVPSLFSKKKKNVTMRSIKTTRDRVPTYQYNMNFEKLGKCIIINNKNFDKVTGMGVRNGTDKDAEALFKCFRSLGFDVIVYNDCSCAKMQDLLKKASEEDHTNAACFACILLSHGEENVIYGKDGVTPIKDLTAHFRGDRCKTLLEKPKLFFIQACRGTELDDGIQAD
T1 sequence (P55210 207-303 limits assumed): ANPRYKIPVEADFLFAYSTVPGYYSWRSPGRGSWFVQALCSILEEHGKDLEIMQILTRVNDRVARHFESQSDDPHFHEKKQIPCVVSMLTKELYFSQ

[3] = S. mansoni legumain, 20 min preincubation, Cbz-Ala-Ala-Asn-AMC substrate

S. mansoni legumain, sequence (P09841 32-291 N192C): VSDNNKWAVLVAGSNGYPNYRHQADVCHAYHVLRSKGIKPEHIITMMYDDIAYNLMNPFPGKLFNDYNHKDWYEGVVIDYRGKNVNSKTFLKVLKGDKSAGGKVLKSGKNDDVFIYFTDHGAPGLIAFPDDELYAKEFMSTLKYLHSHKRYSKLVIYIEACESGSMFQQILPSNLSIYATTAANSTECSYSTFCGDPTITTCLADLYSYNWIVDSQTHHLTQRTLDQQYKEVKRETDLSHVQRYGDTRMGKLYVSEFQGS

Structure (SMILES)	IC50 [1]	further results
C[C@H](NC(=O)OCc1ccccc1)C(=O)N[C@@H](C)C(=O)NN(CC(N)=O)C(=O)/C=C/C(=O)N(Cc1ccccc1)Cc1ccc2ccccc2c1	0.07 µM	kinact/KI [1]: 6100 M⁻¹ s⁻¹
C[C@H](NC(=O)OCc1ccccc1)C(=O)N[C@@H](C)C(=O)NN(CC(N)=O)C(=O)/C=C/C(=O)N1CCCc2ccccc21 (relative stereo) [N^2—(N-Benzyloxycarbonylalanylalanyl)-N^1-carbamoylmethyl-N^1-trans-(3-(3,4-dihydro-2H-quinolin-1-yloxo)propenoyl)hydrazine]		IC50 ([1]; S. mansoni legumain, 20 min preincubation, Cbz-Ala-Ala-Asn-AMC substrate, read-out: IC50): 0.2 µM
C/C=C/C=C/C(=O)N(CC(=O)O)NC(=O)[C@@H](NC(=O)OCc1ccccc1)C(C)C (stereo in doubt) [Cbz-Val-AAsp-CH═CH—CH═CH—CH3, N^2—(N-Benzyloxyearbonylvalyl)-N^1-carboxymethyl-N^1-trans-(hexa-2,4-dienoyl)hydrazine]		k2 Caspase-7 [2]: 56 M⁻¹ s⁻¹
CCOC(=O)C=CC(=O)N(CC(N)=O)NC(=O)C(C)NC(=O)C(C)NC(=O)CCCCC1SCC2NC(=O)NC21 (stereo not drawn) [Biotinyl-Ala-Ala-AAsn-CH═CH—COOEt]	0.01 µM	
C[C@H](NC(=O)OCc1ccccc1)C(=O)N[C@@H](C)C(=O)NN(CC(N)=O)C(=O)/C=C/c1ccco1 [Cbz-Ala-Ala-AAsn-CH═CH-2-furyl, N^2—(N-Benzyloxycarbonylalanylalanyl)-N^1-carbamoylmethyl-N^1-trans-(3-(2-furyl)propenoyl)hydrazine]	> 2 µM	
C[C@H](NC(=O)OCc1ccccc1)C(=O)N[C@@H](C)C(=O)NN(CC(N)=O)C(=O)/C=C/c1cccnc1 [Cbz-Ala-Ala-AAsn-CH═CH-3-Py, N^2—(N-Benzyloxycarbonylalanylalanyl)-N^1-carbamoylmethyl-N^1-trans-(3-(3-pyridyl)propenoyl)hydrazine]	> 2 µM	
CC=CC=CC(=O)N(CC(N)=O)NC(=O)C(C)NC(=O)C(C)NC(=O)OCc1ccccc1 (stereo not drawn) [Cbz-Ala-Ala-AAsn-CH═CHCH═CHCH3, N^2—(N-Benzyloxycarbonylalanylalanyl)-N^1-carbamoylmethyl-N^1-trans-trans-hexa-2,4-dienoylhydrazine]		IC50 [1, 3]: > 2 µM
C[C@H](NC(=O)OCc1ccccc1)C(=O)N[C@@H](C)C(=O)NN(CC(N)=O)C(=O)/C=C/C(=O)N1CC=C(c2ccccc2)CC1 [Cbz-Ala-Ala-AAsn-CH═CH—CO-(4-Ph-Py), N^2—(N-Benzyloxycarbonylalanylalanyl)-N^1-carbamoylmethyl-N^1-trans-(3-(4-phenyl-5,6-dihydro-2H-pyridin-1-yloxo)propenoyl)hydrazine]	0.75 µM	
C[C@H](NC(=O)OCc1ccccc1)C(=O)N[C@@H](C)C(=O)NN(CC(N)=O)C(=O)/C=C/C(=O)N1CCCCC1 [Cbz-Ala-Ala-AAsn-CH═CH—CO-Pip, N^2—(N-Benzyloxycarbonylalanylalanyl)-N^1-carbamoylmethyl-N^1-trans-(3-(1-piperidyloxo)propenoyl)hydrazine]	1 µM	
C[C@H](NC(=O)OCc1ccccc1)C(=O)N[C@@H](C)C(=O)NN(CC(N)=O)C(=O)/C=C/C(=O)N1Cc2ccccc2C1 [Cbz-Ala-Ala-AAsn-CH═CH—CO-isoindoline, N^2—(N-Benzyloxycarbonylalanylalanyl)-N^1-carbamoylmethyl-N^1-trans-(3-(1,3-dihydroisoindol-2-yloxo)propenoyl)hydrazine]	0.3 µM	
C[C@H](NC(=O)OCc1ccccc1)C(=O)N[C@@H](C)C(=O)NN(CC(N)=O)C(=O)/C=C/C(=O)N(Cc1ccccc1)c1ccccc1 [Cbz-Ala-Ala-AAsn-CH═CH—CON(Bzl)Ph, N^2—(N-Benzyloxycarbonylalanylalanyl)-N^1-carbamoylmethyl-N^1-trans-(3-phenylbenzylcarbamoylpropenoyl)hydrazine]	0.07 µM	
C[C@H](NC(=O)OCc1ccccc1)C(=O)N[C@@H](C)C(=O)NN(CC(N)=O)C(=O)/C=C/C(=O)N(Cc1ccccc1)Cc1ccc(F)cc1 [Cbz-Ala-Ala-AAsn-CH═CH—CON(Bzl-4-F)Bzl, N^2—(N-Benzyloxycarbonylalanylalanyl)-N^1-trans-(3-benzyl(4-fluorobenzyl)carbamoylpropenoyl)-N^1-carbamoylmethylhydrazine]	0.06 µM	
COc1ccc(CN(Cc2ccccc2)C(=O)/C=C/C(=O)N(CC(N)=O)NC(=O)[C@H](C)NC(=O)[C@H](C)NC(=O)OCc2ccccc2)cc1 [Cbz-Ala-Ala-AAsn-CH═CH—CON(Bzl-4-OMe)Bzl, N^2—(N-Benzyloxycarbonylalanylalanyl)-N^1-trans-(3-benzyl-(4-methoxybenzyl)carbamoyl)propenoyl-N^1-carbamoylmethylhydrazine]	0.09 µM	
C[C@H](NC(=O)OCc1ccccc1)C(=O)N[C@@H](C)C(=O)NN(CC(N)=O)C(=O)/C=C/C(=O)N(Cc1ccco1)Cc1ccco1 [Cbz-Ala-Ala-AAsn-CH═CH—CON(CH2-2-furyl)2, N^2—(N-Benzyloxycarbonylalanylalanyl)-N^1-carbamoylmethyl-N^1-trans-(3-bis-(2-furylmethyl)carbamoylpropenoyl)hydrazine]	0.9 µM	
C[C@H](NC(=O)OCc1ccccc1)C(=O)N[C@@H](C)C(=O)NN(CC(N)=O)C(=O)/C=C/C(=O)N(C)CCc1ccccc1 [Cbz-Ala-Ala-AAsn-CH═CH—CON(CH3)CH2CH2Ph, N^2—(N-Benzyloxycarbonylalanylalanyl)-N^1-carbamoylmethyl-N^1-trans-(3-(Methylphenethylcarbamoyl)propenoyl)hydrazine]	0.6 µM	
C[C@H](NC(=O)OCc1ccccc1)C(=O)N[C@@H](C)C(=O)NN(CC(N)=O)C(=O)/C=C/C(=O)N(C)c1ccccc1 [Cbz-Ala-Ala-AAsn-CH═CH—CON(CH3)Ph, N^2—(N-Benzyloxycarbonylalanylalanyl)-N^1-carbamoylmethyl-N^1-trans-(3-(methylphenylcarbamoyl)propenoyl)hydrazine]	0.06 µM	
CCCCN(CCCC)C(=O)/C=C/C(=O)N(CC(N)=O)NC(=O)[C@H](C)NC(=O)[C@H](C)NC(=O)OCc1ccccc1 [Cbz-Ala-Ala-AAsn-CH═CH—CON(nBu)2, N^2—(N-Benzyloxycarbonylalanylalanyl)-N^1-carbamoylmethyl-N^1-trans-(3-dibutylcarbamoylpropenoyl)hydrazine]	0.55 µM	
CCN(CC)C(=O)/C=C/C(=O)N(CC(N)=O)NC(=O)[C@H](C)NC(=O)[C@H](C)NC(=O)OCc1ccccc1 [Cbz-Ala-Ala-AAsn-CH═CH—CONEt2, N^2—(N-Benzyloxycarbonylalanylalanyl)-N^1-carbamoylmethyl-N^1-trans-(3-diethylcarbamoylpropenoyl)hydrazine]		IC50 [1, 3]: > 2 µM
C[C@H](NC(=O)OCc1ccccc1)C(=O)N[C@@H](C)C(=O)NN(CC(N)=O)C(=O)/C=C/C(=O)NCc1ccc(F)cc1 [Cbz-Ala-Ala-AAsn-CH═CH—CONH-Bzl-4-F, N^2—(N-Benzyloxycarbonylalanylalanyl)-N^1-carbamoylmethyl-N^1-trans-(3-(4-fluorobenzyl)carbamoylpropenoyl)hydrazine]	0.8 µM	
C[C@H](NC(=O)OCc1ccccc1)C(=O)N[C@@H](C)C(=O)NN(CC(N)=O)C(=O)/C=C/C(=O)NCc1ccccc1 [Cbz-Ala-Ala-AAsn-CH═CH—CONHBzl, N^2—(N-Benzyloxycarbonylalanylalanyl)-N^1-carbamoylmethyl-N^1-trans-(3-benzylcarbamoylpropenoyl)hydrazine]	1 µM	
C[C@H](NC(=O)OCc1ccccc1)C(=O)N[C@@H](C)C(=O)NN(CC(N)=O)C(=O)/C=C/C(=O)Nc1ccccc1 [Cbz-Ala-Ala-AAsn-CH═CH—CONHPh, N^2—(N-Benzyloxycarbonylalanylalanyl)-N^1-carbamoylmethyl-N^1-trans-(3-phenylcarbamoylpropenoyl)hydrazine]	0.7 µM	
C[C@H](NC(=O)OCc1ccccc1)C(=O)N[C@@H](C)C(=O)NN(CC(N)=O)C(=O)/C=C/C(=O)c1ccccc1 [Cbz-Ala-Ala-AAsn-CH═CH—COPh, trans-N^2—(N-Benzyloxycarbonylalanylalanyl)-N^1-carbamoyImethyl-N^1-trans-(3-benzoylpropenoyl)hydrazine]		IC50 [1, 3]: does not inhibit; IC50 ([1]; S. mansoni legumain, 20 min preincubation, Cbz-Ala-Ala-Asn-AMC substrate, listed as —COPh): > 2 µM
C[C@H](NC(=O)OCc1ccccc1)C(=O)N[C@@H](C)C(=O)NN(CC(N)=O)C(=O)/C=C/C(=O)N1CCCc2ccccc21 [N^2—(N-Benzyloxycarbonylalanylalanyl)-N^1-carbamoylmethyl-N^1-trans-(3-(3,4-dihydro-2H-quinolin-1-yloxo)propenoyl)hydrazine]	0.07 µM	
C[C@H](NC(=O)OCc1ccccc1)C(=O)N[C@@H](C)C(=O)NN(CC(N)=O)C(=O)/C=C/C(=O)N(C)Cc1cccc2ccccc12 [N^2—(N-Benzyloxycarbonylalanylalanyl)-N^1-carbamoylmethyl-N^1-trans-(3-(methyl-1-naphthylmethylcarbamoyl)propenoyl)hydrazine]	0.035 µM	kinact/KI [1]: 16900 M⁻¹ s⁻¹
